These results are taken from patent US12180509B2, “Methods for reprograming non-pluripotent cells into pluripotent stem cells” (Beihao Stem Cell and Regenerative Medicine Research …, priority 2015, dated 2024).

Each structure is given as a SMILES string. Structures can show the parent of a compound that is named as a salt. A value given as a limit tells only on which side of the number the result lay.

Holding throughout (assay type): cell-based, mouse
For assay [1], the system named is MEFs from OG mice. Description: Screen for chemical substitutes of Oct4 in OG-MEFs infected with Sox2, Klf4 and c-Myc. The note with it: OG-MEFs with viral expression of Sox2, Klf4 and c-Myc, no Oct4. The method, then:
To identify chemical substitutes of Oct4, MEFs from OG mice were plated at a density of 20,000 cells per well of a 12-well plate and infected with lentiviruses encoding Sox2, Klf4 and c-Myc. After infection, the medium was replaced with LIF-free ESC culture medium. Individual chemicals from small-molecule libraries were added to each well. The medium and chemicals were changed every 4 days. Chemical treatments were continued for 14-20 days or until GFP-positive colonies appeared. Primary hits were selected for further confirmation and optimization.
Small molecules that enable reprogramming in the absence of Oct4 were searched using Oct4 promoter-driven green fluorescent protein (GFP) expression (OG) mouse embryonic fibroblasts (MEFs), with viral expression of Sox2, Klf4, and c-Myc.

Another assay deals with MEFs. Description: CiPSC induction from MEFs with small-molecule combinations (no XEN priming). The note with it: for replacement of DZNep in CiPSC generation: SAH hydrolase inhibitor in combination with VC6TF.
Assay [2] deals with MEFs from OG mice. Description: Screen for small molecules that facilitate late reprogramming (DOX-inducible Oct4 plus VC6T). The note with it: VC6T plus DOX-induced Oct4 for the first 4-8 days. Here is the method: To identify small molecules that facilitate late reprogramming, a doxycycline (DOX)-inducible Oct4 expression screening system was used (Li, et al., Cell Res. 21:196-204 (2011)).
MEFs from OG mice were plated as described above and infected with Fu-tet-hOct4 and FUdeltaGW-rtTA lentiviruses. The induction protocol was carried out as described above.
After infection, the culture medium was replaced with LIF-free ESC culture medium containing VC6T (VPA, CHIR99021, 616452, Tranylcypromine) plus DOX (1 μg/ml). Alternatively, MEFs harboring DOX-inducible Oct4 from Tet-On POUSF1 mouse strain B6; 129-Gt (ROSA)26Sor^tm1(TrtTA*M2)Jae Colla1^tm2(tetO-Pou5f1)Jae/J were used in this screen (Li, et al., Cell Res., 21:196-204 (2011)). These two DOX-inducible systems were only used in this screen, but not in complete chemical reprogramming. Individual chemicals from small-molecule libraries were added to each well. Small molecules were added at different culture time points. 5-aza-C(5-Azacytidine) and DZNep were added from day 8. The medium and chemicals were changed every 4 days; DOX was added only for the first 4-8 days. Chemical treatments were continued for 16-24 days or until GFP-positive colonies appeared. Primary hits were selected for further confirmation and optimization. CiPSC colonies were counted on day 44. […]

In assay [3] the test system is pluripotency-related genes and XEN marker genes. Description: Real-time PCR of pluripotency, XEN and MET genes during chemical reprogramming. The note with it: for expression of XEN marker genes (Sall4, Gata4, Sox17): stage 1, fibroblasts to XEN-like cells; for endogenous expression of Sall4 and Sox2 on withdrawal of the chemical: chemicals withdrawn from VC6TF, after 12 days. Here is the method: Total RNA from an entire well of cultured cells was isolated using the RNeasy Plus MiniKit (QIAGEN). For a single colony, RNA was isolated using the RNeasy Micro Kit (QIAGEN). RNA was converted to cDNA using TransScript First-Strand cDNA Synthesis SuperMix (TransGen Biotech). PCR was carried out using Power SYBRR Green PCR Master Mix (Applied Biosystems) and performed on an ABI Prism 7300 Sequence Detection System. The data were analyzed using the delta-delta Ct method.

Assay [4] relates to intracellular levels SAH to SAM. Description: SAM and SAH quantification by HPLC. The note with it: during chemical reprogramming, relative to MEFs. The method, then: (§1) CAMP was quantified using the Direct cAMP ELISA Kit (Enzo) according to the manufacturer's protocol. For SAM and SAH quantification, cultured cells (1,000,000 cells) were trypsinized and homogenized by ultrasonication in 200 μl PBS. Then 40 μl of 400 mg/ml TCA was added. Cell extracts were incubated on ice for 30 min. After centrifugation at 4° C. (13,000 rpm, 15 min), the supernatants were filtered through a 0.22 μm filter and analyzed by high-performance liquid chromatography (HPLC, Shimadzu) with HILIC columns (Waters).

Another assay relates to Oct4 promoter. Description: DNA methylation (bisulfite sequencing) and H3K9 methylation (ChIP) at the Oct4 promoter. The note with it: presence versus absence of DZNep, day 32. The method, then:
Genomic DNA was modified by bisulfite treatment and purified using the MethylCode™ Bisulfite Conversion Kit (Invitrogen) according to the manufacturer's protocol. The amplified fragments were cloned into the pEASY-blunt Vector (Transgene). Ten randomly picked clones from each sample were sequenced. ChIP was performed using the EZ-Magna ChIP A/G Kit (Millipore) according to the manufacturer's protocol. Anti-H3K27me3 (Abcam, ab6002), anti-H3K9me2 (Millipore, 07-441), anti-H3K4me3 (Abcam, ab8580) and anti-H3K9ac (Abcam, ab4441) antibodies were used. Following immunoprecipitation, DNA was analyzed by real-time PCR.

Another assay has as its system cAMP. Description: Intracellular cAMP quantification (Direct cAMP ELISA). The note with it: MEF, FSK 10 μM versus DMSO control. Here is the method: as §1
The effect of inhibiting adenylate cyclase on the number of colonies generated by VC6TFZ was tested. […] The effect of replacing FSK with the cAMP analog (DBcAMP), alone or in combination with phosphodiesterase inhibitors, IBMX, or the phosphodiesterase inhibitor, rolipram and IBMX, on cell reprograming was also tested. Both DBcAMP and IBMX were used at 50 μM in the combination treatment.
For orientation: An ELISA detects its analyte on a solid surface through an enzyme-linked reagent.

As to `Cc1[nH]c2ccc(O)cc2c1CCN` [2-Me-5HT, 2-Methyl-5-hydroxytryptamine hydrochloride], in the assay with MEFs from OG mice [1], the “chemical substitute for Oct4 (iPSC induction)” value (from here on “chemical substitute for Oct4”) is reported as “identified as chemical “substitutes” for Oct4”.
On to `C[C@H]1O[C@@H](n2cnc3c(N)ncnc32)C[C@@H]1O` [2′5′ddAdo, 2′,5′-Dideoxyadenosine], for which the “number of colonies formed by VC6TFZ” value with MEFs (inhibition of adenylate cyclase during VC6TFZ treatment) is recorded as “decreased the number of colonies”.
`Nc1ncn([C@@H]2O[C@H](CO)[C@@H](O)[C@H]2O)c(=O)n1` [5-Azacytidine]: the “small molecule hit facilitating late reprogramming” value in the assay with MEFs from OG mice [2] is “identified in this screen”.
As to `CC1(C)CCC(C)(C)c2cc(C(=O)Nc3ccc(C(=O)O)cc3)ccc21` [AM580, 4-[(5,6,7,8-Tetrahydro-5,5,8,8-tetramethyl-2-naphthalenyl)carboxamido]benzoic acid], the “expression of XEN marker genes (Sall4, Gata4, Sox17)” value in assay [3] was “promote the expression of XEN marker genes”.
With `Nc1ncnc2c1ncn2C(C=O)OC(C=O)CO` (centres unmarked) [Adox, Adenosine, periodate oxidized], in the assay with MEFs, the “replacement of DZNep in CiPSC generation” value was “useful in replacing DZNep in reprogramming”.
With `Cc1cnc(-c2cnc(NCCNc3ccc(C#N)cn3)nc2-c2ccc(Cl)cc2Cl)[nH]1` [CHIR99021, 6-[[2-[[4-(2,4-Dichlorophenyl)-5-(5-methyl-1H-imidazol-2-yl)-2-pyrimidinyl]amino]ethyl]amino]-3-pyridinecarbonitrile], the “endogenous expression of Sall4 and Sox2 on withdrawal of the chemical” value (shortened to “endogenous expression of Sall4 and Sox2”) in assay [3] was “essential in activating the endogenous expression of Sall4 and Sox2”. Besides, the “increase in the expression of Gata4, Sox17 and EpCAM” value in assay [3] (increased concentration of CHIR99021 (20 μM versus 10 μM) in VC6TF, 12 days) is “up to 10 fold”.
Turning to `NC(=O)c1ccc(-c2nc(-c3ccc4c(c3)OCCO4)c(-c3ccccn3)[nH]2)cc1` [D4476, 4-[4-(2,3-Dihydro-1,4-benzodioxin-6-yl)-5-(2-pyridinyl)-1H-imidazol-2-yl]benzamide], in the assay on MEFs from OG mice [1], the “chemical substitute for Oct4” value was “identified as chemical “substitutes” for Oct4”.
Turning to `Nc1nccc2c1ncn2[C@@H]1O[C@H](CO)[C@@H](O)[C@H]1O` [DZA, 3-Deazaadenosine], in the assay on MEFs, the “replacement of DZNep in CiPSC generation” value is on record as “useful in replacing DZNep in reprogramming”.
`Nc1nccc2c1ncn2[C@@H]1C=C(CO)[C@@H](O)[C@H]1O` [DZNep, 3-deazaneplanocin A]: in assay [4], the “concentration ratio of SAH to SAM” value is listed as “elevates the concentration ratio of SAH to S-adenosylmethionine (SAM)”. In addition, the “small molecule hit facilitating late reprogramming” value in the assay with MEFs from OG mice [2] is given as “identified in this screen”. In addition, in the assay with Oct4 promoter, the “DNA methylation and H3K9 methylation at the Oct4 promoter” value is recorded as “significantly decreased”. The Oct4 expression entry in assay [3] (after addition of DZNep in the late phase of chemical reprogramming) is recorded as “enhanced significantly”.
Consider `CC(C)N(CCCNC(=O)Nc1ccc(C(C)(C)C)cc1)C[C@H]1O[C@@H](n2ccc3c(N)ncnc32)[C@H](O)[C@@H]1O` [EPZ004777, 1-(3-((((2R,3S,4R,5R)-5-(4-amino-7H-pyrrolo[2,3-d]pyrimidin-7-yl)-3,4-dihydroxytetrahydrofuran-2-yl)methyl)(isopropyl)amino)propyl)-3-(4-(tert-butyl)phenyl)urea], for which the “expression of XEN marker genes (Sall4, Gata4, Sox17)” value in assay [3] is recorded as “promote the expression of XEN marker genes”.
For the molecule `C=C[C@@]1(C)CC(=O)[C@]2(O)[C@@]3(C)[C@@H](O)CCC(C)(C)[C@@H]3[C@H](O)[C@H](OC(C)=O)[C@@]2(C)O1` [Forskolin], the “intracellular cAMP level” value with cAMP is listed as “significantly elevates the CAMP level”. Further, in the assay with MEFs from OG mice [2], the “small molecule hit facilitating late reprogramming” value is reported as “identified in this screen”. Also, the “endogenous expression of Sall4 and Sox2” value in assay [3] is “essential in activating the endogenous expression of Sall4 and Sox2”. Also, in the assay with MEFs from OG mice [1], the “chemical substitute for Oct4” value is on record as “identified as chemical “substitutes” for Oct4”.
For `Nc1ncnc2c1ncn2[C@@H]1C=C(CO)[C@@H](O)[C@H]1O` [NEPA, (−)-Neplanocin A], the “replacement of DZNep in CiPSC generation” value in the assay on MEFs is reported as “useful in replacing DZNep in reprogramming”.
Consider `CCCCC[C@H](O)/C=C/[C@H]1[C@H](O)CC(=O)[C@@H]1C/C=C\CCCC(=O)O` [Prostaglandin E2], for which the “small molecule hit facilitating late reprogramming” value in the assay with MEFs from OG mice [2] is listed as “identified in this screen”.
In the case of `O=C(O)[C@@H](Cc1c[nH]c2ccccc12)N1C(=O)C2=CCCC=C2C1=O` [RG108], the “small molecule hit facilitating late reprogramming” value with MEFs from OG mice [2] was “identified in this screen”.
Turning to `COc1ccc(C2CNC(=O)C2)cc1OC1CCCC1` (centres unmarked) [Rolipram], the “small molecule hit facilitating late reprogramming” value with MEFs from OG mice [2] was “identified in this screen”.
Consider `C/C(=C\c1ccc(C(=O)O)cc1)c1ccc2c(c1)C(C)(C)CCC2(C)C` [TTNPB, 4-[(E)-2-(5,6,7,8-Tetrahydro-5,5,8,8-tetramethyl-2-naphthalenyl)-1-propenyl]benzoic acid], for which the “chemical reprogramming efficiency enhanced, factor” value in the assay on MEFs (TTNPB as booster added to the chemical cocktail (C6FZ or VC6TFZ) in MEFs) is listed as no more than 40. Moreover, the reprogramming frequency entry in the assay with MEFs (with TTNPB, comparable to transcription factor-induced reprogramming) was “up to 0.2%”.
As to `Cc1cccc(-c2n[nH]cc2-c2ccc3ncccc3n2)n1` [compound 616452, 2-(3-(6-Methylpyridin-2-yl)-1H-pyrazol-4-yl)-1,5-naphthyridine], the “endogenous expression of Sall4 and Sox2” value in assay [3] is “essential in activating the endogenous expression of Sall4 and Sox2”.
As to `CCCC(=O)[O-].[Na+]` [sodium butyrate, Sodium butyrate], in the assay with MEFs from OG mice [2], the “small molecule hit facilitating late reprogramming” value is on record as “identified in this screen”.
